Laboratory results as given in patent US20080293727A1, “Novel sulfonamide inhibitors of aspartyl protease” (priority 1992, published 2008).
Read-outs that look alike come from different tables or passages of the source.

Experiments:
[1] = system: HIVIIIb in CCRM-CEM cells; assay: Anti-viral potency in CCRM-CEM cells acutely infected with HIVIIIb, extracellular p24 antigen readout (method of Meek et al.); assay type: cell-based, HIV-1
Description: Compounds of formula I were tested for their antiviral potency in several virological assays.
The effect of the compounds on inhibiting the replication of the virus was measured by determining the HIV extracellular p24 antigen concentration using a commercial enzyme immunoassay (obtained from Coulter Corporation, Hialeah, Fla.).
In Table VIII, the following classifications have been employed: • A: inhibits HIV replication at concentration of 100 nM or less. • B: inhibits HIV replication at concentration of between 101 and 1,000 nM. • C: inhibits HIV replication at a concentration of between 1,001 and 10,000 nM. • D: inhibits HIV replication at a concentration of between 10,001 and 40,000 nM. • ND: not tested.

[2] = target: HIV-1 protease (Human immunodeficiency virus type 1 group M subtype B, UniProt P04585); assay: Inhibition constants against HIV-1 protease (method of Pennington et al.); assay type: biochemical; details: HIV-1 protease; read-out: Ki value
Description: We measured the inhibition constants of the compounds listed in Table VII against HIV-1 protease using the above-cited method of Pennington et al.

[3] = CCRM-CEM cells, HIV replication, read-out: IC90 Range
[4] = Human immunodeficiency virus 1, read-out: IC90 Range

`CC(C)CN(CC(O)[C@H](Cc1ccccc1)NC(=O)[C@H](CC(N)=O)NC(=O)c1ccc2ccccc2n1)S(=O)(=O)c1ccc(-c2ccccn2)s1` (stereo partly drawn) [Compound 12, (S)-N-1-(1-(S)-Benzyl-2-(syn)-hydroxyl-3-(isobutyl-(5-pyridin-2-yl-thiophene-2-sulfonyl)-amino)-propyl)-2-((quinoline-2-carbonyl)-amino)-succinamide] gave an IC90 [1, 3] of less than 0.1 µM and a Ki [2] of 0.0001 µM.

`CC(=O)Nc1ccc(S(=O)(=O)N(CC(C)C)CC(O)[C@H](Cc2ccccc2)NC(=O)C(CC(N)=O)C(=O)OCc2ccncc2)cc1` (stereo partly drawn) [Compound 23, N-1-(3-((4-Acetylamino-benzenesulfonyl)-isobutyl-amino)-(1S,2 syn)-1-benzyl-2-hydroxy-propyl)-2-(pyridin-4-yl-methoxycarbonyl)-succinamide] was tested, and the IC90 [1, 3] was 0.101 to 1 µM and the Ki [2] was 0.0015 µM.

Work on `CC(C)CN(C[C@@H](O)[C@H](Cc1ccccc1)NC(=O)C(CC(N)=O)C(=O)OCc1ccccn1)S(=O)(=O)c1ccc(F)cc1` (stereo partly drawn) [Compound 26, N-1-(3-((4-Fluoro-benzenesulfonyl)-isobutyl-amino)-(1S,2 syn)-1-benzyl-2-hydroxy-propyl)-2-(pyridin-2-yl-methoxycarbonyl)-succinamide] yielded an IC90 [1, 3] of 0.101 to 1 µM and a Ki [2] of 0.0001 µM.

Molecule `CC(C)CN(C[C@@H](O)[C@H](Cc1ccccc1)NC(=O)OC(C)(C)C)S(=O)(=O)c1ccccc1F` [Compound 47] has an IC90 [1, 4] of 1 to 10 µM and a Ki [2] of 0.004 µM.

In the case of `CC(C)CN(CC(O)[C@H](Cc1ccccc1)NC(=O)O[C@@H]1CCOC1)S(=O)(=O)c1ccc(F)cc1` (stereo partly drawn) [Compound 52, 4-Fluoro-N-((2 syn,3S)-2-hydroxy-4-phenyl-3-((R)-tetrahydrofuran-3-yloxycarbonylamino)-butyl)-N-isobutyl-benzenesulfonamide and 4-Fluoro-N-((2 syn,3S)-2-hydroxy-4-phenyl-3-((R)-tetrahydrofuran-3-yloxycarbonylamino)-butyl)-N-isobutyl-benzenesulfonamide], the IC90 [1, 3] is reported as 0.101 to 1 µM and the Ki [2] is reported as 0.0004 µM.

Molecule `CC(C)CN(CC(O)C(Cc1ccccc1)NC(=O)OCC1CCOC1)S(=O)(=O)c1ccc(Cl)c(Cl)c1` (stereo not drawn) [Compound 85] has an IC90 [1, 4] of 1 to 10 µM and a Ki [2] of 0.004 µM.

With `CC(=O)Nc1ccc(S(=O)(=O)N(CC(C)C)CC(O)C(Cc2ccccc2)NC(=O)OC2CCOC2)cc1` [Compound 86, N-(4-(((2 syn,3S)-2-Hydroxy-4-phenyl-3-((R)-tetrahydrofuran-3-yloxycarbonylamino)-butyl)-isobutyl-sulfamoyl-phenyl)-acetamide and N-(4-(((2 syn,3S)-2-Hydroxy-4-phenyl-3-((S)-tetrahydrofuran-3-yloxycarbonylamino)-butyl)-isobutyl-sulfamoyl)-phenyl)-acetamide] the IC90 [1, 4] was 0.101 to 1 µM and the Ki [2] was 0.005 µM.

For `CC(C)CN(C[C@@H](O)[C@H](Cc1ccccc1)NC(=O)O[C@H]1CCOC1)S(=O)(=O)c1ccc(N)cc1` [Compound 168, 4-Amino-N-((2 syn,3S)-2-Hydroxy-4-phenyl-3-((S)-tetrahydrofuran-3-yloxycarbonylamino)-butyl)-N-isobutyl-benzenesulfonamide], the IC90 ([1]; Human immunodeficiency virus 1, CCRM-CEM cells, HIV replication, read-out: IC90 Range) was less than 0.1 µM.

For `N#Cc1ccc(S(=O)(=O)N(CC2CCCC2)C[C@@H](O)[C@H](Cc2ccccc2)NC(=O)O[C@H]2CCOC2)cc1` [Compound 181], the Ki [2] was 0.0003 µM.

Work on `O=C(N[C@@H](Cc1ccccc1)[C@H](O)CN(CC1CCCC1)S(=O)(=O)c1ccc(F)cc1)O[C@H]1CCOC1` [Compound 182, N-Cyclopentylmethyl-4-fluoro-N-((2 syn,3S)-2-hydroxy-4-phenyl-3-((S)-tetrahydrofuran-3-yloxycarbonylamino)-butyl)-benzenesulfonamide] yielded a Ki [2] of 0.0002 µM.

Work on `O=C(N[C@@H](Cc1ccccc1)[C@H](O)CN(CC1CCCC1)S(=O)(=O)c1ccc(Cl)c(Cl)c1)O[C@H]1CCOC1` [Compound 183, 3,4-Dichloro-N-cyclopentylmethyl-N-((2 syn,3S)-2-hydroxy-4-phenyl-3-((S)-tetrahydrofuran-3-yloxycarbonylamino)-butyl)-benzenesulfonamide] yielded a Ki [2] of 0.0001 µM.

Work on `COc1ccc(S(=O)(=O)N(CC2CCCC2)C[C@@H](O)[C@H](Cc2ccccc2)NC(=O)O[C@@H]2CCN(C(=O)OC(C)(C)C)C2)cc1` [Compound 184] yielded a Ki [2] of 0.005 µM.

Work on `COc1ccc(S(=O)(=O)N(CC2CCCC2)CC(O)C(Cc2ccccc2)NC(=O)OC2CCNC2)cc1` (stereo not drawn) [Compound 185] yielded a Ki [2] of 0.0035 µM.

`CCC(C)C(NC(=O)OCc1ccccc1)C(=O)NC(Cc1ccccc1)C(O)CN(Cc1ccccc1)S(=O)(=O)Cc1ccccc1` (stereo not drawn) [Compound 186] was tested, and the Ki [2] was 0.14 µM.

In the case of `CC(=O)Nc1ccc(S(=O)(=O)N(CC(C)C)C[C@@H](O)[C@H](Cc2ccccc2)NC(=O)C(C)(C)NC(=O)OC(C)(C)C)cc1` [Compound 189], the Ki [2] is reported as 5.5 µM.

Work on `CC(=O)Nc1ccc(S(=O)(=O)N(CC(C)C)CC(O)C(Cc2ccccc2)NC(=O)C(CC(N)=O)NC(=O)c2ccc3ccccc3n2)cc1` (stereo not drawn) [Compound 193] yielded a Ki [2] of 0.4 µM.

For `CC(C)CN(CC(O)C(Cc1ccccc1)NC(=O)C(CC(N)=O)NC(=O)c1ccc2ccccc2n1)S(=O)(=O)c1ccc(-c2ccon2)s1` (stereo not drawn) [Compound 194], the Ki [2] was 0.35 µM.

For `COc1ccc(S(=O)(=O)N(CC2CCCC2)C[C@@H](O)[C@H](CC2CCCCC2)NC(=O)O[C@H]2CCOC2)cc1` [Compound 195, N-((2 syn,3S)-4-Cyclohexyl-2-hydroxy-3-((S)-tetrahydrofuran-3-yloxycarbonylamino)-butyl)-N-cyclopentylmethyl-4-methoxy-benzenesulfonamide], the Ki [2] was 0.0002 µM.

In the case of `CC(=O)Nc1ccc(S(=O)(=O)N(CC(C)C)C[C@@H](O)[C@H](Cc2ccccc2)NC(=O)C(=O)C(C)(C)C)cc1` [Compound 1001], the Ki [2] is reported as 0.22 µM.

`CC(=O)Nc1ccc(S(=O)(=O)N(CC(C)C)C[C@@H](O)[C@H](Cc2ccccc2)NC(=O)C[C@H]2CNC(=O)C2)cc1` [Compound 1002] was tested, and the Ki [2] was 0.028 µM.

`CC(C)CN(C[C@@H](O)[C@H](Cc1ccccc1)NC(=O)O[C@H]1CCOC1)S(=O)(=O)c1cccnc1` [Compound 1003] gave a Ki [2] of 0.008 µM.

Molecule `COc1ccc(S(=O)(=O)N(C)C[C@@H](O)[C@H](Cc2ccccc2)NC(=O)O[C@H]2CCOC2)cc1` [Compound 1005] has a Ki [2] of 0.25 µM.

For `C=C(C)CN(C[C@@H](O)[C@H](Cc1ccccc1)NC(=O)O[C@H]1CCOC1)S(=O)(=O)c1ccc(OC)cc1` [Compound 1006], the Ki [2] was 0.008 µM.

`COc1ccc(S(=O)(=O)N(CC2CCCO2)CC(O)C(Cc2ccccc2)NC(=O)OC2CCOC2)cc1` (stereo not drawn) [Compound 1007] showed a Ki [2] of 0.042 µM.

`COc1ccc(S(=O)(=O)N(C[C@@H](O)[C@H](Cc2ccccc2)NC(=O)O[C@H]2CCOC2)CC(C)(C)CO)cc1` [Compound 1009] was tested, and the Ki [2] was 0.02 µM.

`COc1ccc(S(=O)(=O)N(C[C@@H](O)[C@H](Cc2ccccc2)NC(=O)O[C@H]2CCOC2)CC(C)(C)O)cc1` [Compound 1010] gave a Ki [2] of 0.02 µM.

Molecule `COc1ccc(S(=O)(=O)N(C[C@@H](O)[C@H](Cc2ccccc2)NC(=O)O[C@H]2CCOC2)C2CCNCC2)cc1` [Compound 1011] has a Ki [2] of 1.5 µM.

Molecule `COc1ccc(S(=O)(=O)N(C[C@@H](O)[C@H](Cc2ccccc2)NC(=O)O[C@H]2CCOC2)CN2CCCCC2)cc1` [Compound 1013] has a Ki [2] of 1.5 µM.

In the case of `COc1ccc(S(=O)(=O)N(CCN2CCCCC2)C[C@@H](O)[C@H](Cc2ccccc2)NC(=O)O[C@H]2CCOC2)cc1` [Compound 1014], the Ki [2] is reported as 9.3 µM.
